pIC50: −log10 of the molar value.

One assay has as its system Plasmodium falciparum 3D7. Put plainly: P. falciparum 3D7 asexual blood stage assay, Assay Procedure Version 2 (SYBR green readout). The class given is cell-based. As to conditions: Plasmodium falciparum, 3D7, Erythrocyte, 72 h, Version 2 of the assay procedure (asterisk *); 72 h incubation in infected erythrocytes; 50,000 nM to 15 nM. The procedure, abridged: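 P. falciparum 3D7 in A+ erythrocytes (5% haematocrit, 0.5% parasitaemia) exposed 72 h at 37 °C (1% O2, 3% CO2) to 20-point 1.5-fold titrations, final 50,000–15 nM in 0.5% DMSO. SYBR green in lysis buffer overnight, fluorescence 485/528 nm; % inhibition vs mefloquine and DMSO controls, EC50 from biphasic two-site fit.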
Molecule `Cc1cnc(Nc2cccc([C@]3(C)CC(=O)N([C@H]4C[C@@](C)(O)C4)C(=N)N3)c2Cl)cn1` [Example 129, (6S)-6-{2-Chloro-3-[(5-methyl-pyrazin-2-yl)amino]phenyl}-3-(3-hydroxy-3-methylcyclo-butyl)-2-imino-6-methyl-hexahydropyrimidin-4-one] gave a pIC50 of 5.88.
On the same count and under the same terms, then `C[C@@]1(c2cccc(Nc3ncc4ccccn34)c2Cl)CC(=O)N(C2CCOCC2)C(=N)N1` [Example 187, (6S)-6-[2-Chloro-3-(imidazo-[1,5-a]pyridin-3-ylamino)-phenyl]-2-imino-6-methyl-3-(tetrahydropyran-4-yl)-hexahydropyrimidin-4-one], with 6.41; and `Cc1cnc(Nc2cccc([C@]3(C)CC(=O)N(C4CCOCC4)C(=N)N3)c2Cl)cn1` [Example 44, (6S)-6-{2-Chloro-3-[(5-methyl-pyrazin-2-yl)amino]phenyl}-2-imino-6-methyl-3-(tetrahydro-pyran-4-yl)hexahydropyrimidin-4-one], with 6.09; and `C[C@@]1(c2cccc(Nc3ccc(F)cn3)c2Cl)CC(=O)N([C@H]2C[C@@](C)(O)C2)C(=N)N1` [Example 126, (6S)-6-{2-Chloro-3-[(5-fluoro-pyridin-2-yl)amino]phenyl}-3-(3-hydroxy-3-methylcyclo-butyl)-2-imino-6-methyl-hexahydropyrimidin-4-one], with 5.76.
Same read-out and setting: then `CC1(C)CC(N2C(=N)N[C@](C)(c3cccc(Nc4ccn(C5CC5)c(=O)c4)c3Cl)CC2=O)CCO1` (single isomer, unassigned) [Example 205, (6S)-6-{2-Chloro-3-[(1-cyclo-propyl-2-oxopyridin-4-yl)-amino]phenyl}-3-[(4R*)-2,2-dimethyltetrahydropyran-4-yl]-2-imino-6-methylhexahydro-pyrimidin-4-one], with 5.21.
Still for that read-out and setting: then `C[C@@]1(c2cccc(Nc3ccc(C4(C#N)CCC4)nc3)c2Cl)CC(=O)N(C2CCOCC2)C(=N)N1` [Example 103, 1-(5-{2-Chloro-3-[(4S)-2-imino-4-methyl-6-oxo-1-(tetrahydro-pyran-4-yl)hexahydropyrimidin-4-yl]anilino}pyridin-2-yl)-cyclobutanecarbonitrile], with 6.26.
`Cc1ccc(Nc2cccc([C@]3(C)CC(=O)N(C4CCOCC4)C(=N)N3)c2Cl)c(OC(F)F)n1` [Example 94, (6S)-6-(2-Chloro-3-{[2-(difluoromethoxy)-6-methyl-pyridin-3-yl]amino}phenyl)-2-imino-6-methyl-3-(tetrahydro-pyran-4-yl)hexahydropyrimidin-4-one] showed a pIC50 of 7.47.
On the same count and under the same terms, then `COc1ncccc1Nc1cccc([C@]2(C)CC(=O)N(C3CCOCC3)C(=N)N2)c1Cl` [Example 50, (6S)-6-{2-Chloro-3-[(2-methoxypyridin-3-yl)amino]-phenyl}-2-imino-6-methyl-3-(tetrahydropyran-4-yl)-hexahydropyrimidin-4-one], with 6.43.
The same measure, in the same setting: the figure for `C[C@@]1(c2cccc(Nc3ccn4nccc4c3)c2Cl)CC(=O)N([C@H]2C[C@@](C)(O)C2)C(=N)N1` [Example 132, (6S)-6-[2-Chloro-3-(pyrazolo-[1,5-a]pyridin-5-ylamino)-phenyl]-3-(3-hydroxy-3-methyl-cyclobutyl)-2-imino-6-methyl-hexahydropyrimidin-4-one] is 6.21; for `C[C@@]1(c2cccc(Nc3ccc(Cl)cc3)c2Cl)CC(=O)N([C@H]2C[C@@](C)(O)C2)C(=N)N1` [Example 176, (6S)-6-[2-Chloro-3-(4-chloro-anilino)phenyl]-3-(3-hydroxy-3-methylcyclobutyl)-2-imino-6-methylhexahydropyrimidin-4-one] it is 6.34.
Consider `C[C@@H]1C[C@H](N2C(=N)N[C@](C)(c3cccc(Nc4ccc(OCC(F)(F)F)nn4)c3Cl)CC2=O)CCO1` (relative stereo) [Example 202, (6S)-6-(2-Chloro-3-{[6-(2,2,2-trifluoroethoxy)pyridazin-3-yl]-amino}phenyl)-2-imino-6-methyl-3-[(2R*,4R*)-2-methyl-tetrahydropyran-4-yl]-hexahydropyrimidin-4-one], for which the pIC50 is 6.95.
Still for that read-out and setting: the figure for `CC(C)(C)c1ccc(Nc2cccc([C@]3(C)CC(=O)N(C4CCOCC4)C(=N)N3)c2Cl)cc1` [Example 67, (6S)-6-[3-(4-tert-Butylanilino)-2-chlorophenyl]-2-imino-6-methyl-3-(tetrahydropyran-4-yl)hexahydropyrimidin-4-one] is 5.59; for `Cn1ncc2cc(Nc3cccc([C@]4(C)CC(=O)N(C5CCOCC5)C(=N)N4)c3Cl)cnc21` [Example 115, (6S)-6-{2-Chloro-3-[(1-methyl-pyrazolo[3,4-b]pyridin-5-yl)-amino]phenyl}-2-imino-6-methyl-3-(tetrahydropyran-4-yl)hexahydropyrimidin-4-one] it is 6.18; for `C[C@@]1(c2cccc(Nc3cccc(N4CCCC4=O)c3)c2Cl)CC(=O)N(C2CCOCC2)C(=N)N1` [Example 79, (6S)-6-{2-Chloro-3-[3-(2-oxo-pyrrolidin-1-yl)anilino]phenyl}-2-imino-6-methyl-3-(tetrahydro-pyran-4-yl)hexahydropyrimidin-4-one] it is 6.40.
Still for that read-out and setting: the figure for `C[C@@]1(c2cccc(Nc3ncccc3OC(F)F)c2Cl)CC(=O)N(C2CCOCC2)C(=N)N1` [Example 102, (6S)-6-(2-Chloro-3-{[3-(difluoromethoxy)pyridin-2-yl]-amino}phenyl)-2-imino-6-methyl-3-(tetrahydropyran-4-yl)hexahydropyrimidin-4-one] is 6.71; for `C[C@@]1(c2cccc(Nc3cccc(-c4ccccc4)c3)c2Cl)CC(=O)N(C2CCOCC2)C(=N)N1` [Example 58, (6S)-6-[2-Chloro-3-(3-phenyl-anilino)phenyl]-2-imino-6-methyl-3-(tetrahydropyran-4-yl)hexahydropyrimidin-4-one] it is 5.79; for `C[C@@]1(c2cccc(Nc3cnc4ccccn34)c2Cl)CC(=O)N(C2CCOCC2)C(=N)N1` [Example 185, (6S)-6-[2-Chloro-3-(imidazo-[1,2-a]pyridin-3-ylamino)-phenyl]-2-imino-6-methyl-3-(tetrahydropyran-4-yl)-hexahydropyrimidin-4-one] it is 6.25.
The same measure, in the same setting: then `C[C@@]1(c2cccc(Nc3cnccc3C(F)(F)F)c2Cl)CC(=O)N(C2CCOCC2)C(=N)N1` [Example 56, (6S)-6-(2-Chloro-3-{[4-(trifluoromethyl)pyridin-3-yl]-amino}phenyl)-2-imino-6-methyl-3-(tetrahydropyran-4-yl)hexahydropyrimidin-4-one], with 6.60; and `Cc1ccc(Nc2cccc([C@]3(C)CC(=O)N([C@H]4C[C@](O)(C(C)C)C4)C(=N)N3)c2Cl)cn1` [Example 134, (6S)-6-{2-Chloro-3-[(6-methyl-pyridin-3-yl)amino]phenyl}-3-(3-hydroxy-3-isopropylcyclo-butyl)-2-imino-6-methyl-hexahydropyrimidin-4-one], with 5.40.
`C[C@@]1(c2cccc(Nc3ccnc(C(F)(F)F)c3)c2Cl)CC(=O)N([C@H]2C[C@@](C)(O)C2)C(=N)N1` [Example 131, (6S)-6-(2-Chloro-3-{[2-(trifluoromethyl)pyridin-4-yl]amino}phenyl)-3-(3-hydroxy-3-methylcyclobutyl)-2-imino-6-methylhexahydropyrimidin-4-one] gave a pIC50 of 4.74.
Regarding `Cc1cccc(C)c1Nc1cccc([C@]2(C)CC(=O)N(C3CCOCC3)C(=N)N2)c1Cl` [Example 69, (6S)-6-[2-Chloro-3-(2,6-dimethylanilino)phenyl]-2-imino-6-methyl-3-(tetrahydro-pyran-4-yl)hexahydropyrimidin-4-one], the pIC50 was 6.24.
The same measure, in the same setting: the figure for `C[C@@]1(c2cccc(Nc3cccnc3OC(F)F)c2Cl)CC(=O)N(C2CCOCC2)C(=N)N1` [Example 97, (6S)-6-(2-Chloro-3-{[2-(difluoromethoxy)pyridin-3-yl]-amino}phenyl)-2-imino-6-methyl-3-(tetrahydropyran-4-yl)hexahydropyrimidin-4-one] is 6.67.
The molecule `Cc1ccc(Nc2cccc([C@]3(C)CC(=O)N([C@H]4C[C@@](O)(C(F)(F)F)C4)C(=N)N3)c2Cl)cn1` [Example 153, (6S)-6-{2-Chloro-3-[(6-methyl-pyridin-3-yl)amino]phenyl}-3-[3-hydroxy-3-(trifluoromethyl)-cyclobutyl]-2-imino-6-methyl-hexahydropyrimidin-4-one (trans isomer)] gave a pIC50 of 5.49.
On the same count and under the same terms, then `C[C@@]1(c2cccc(Nc3ccc(F)cc3)c2Cl)CC(=O)N(C2CC(O)(C(F)(F)F)C2)C(=N)N1` [Example 179, (6S)-6-[2-Chloro-3-(4-fluoro-anilino)phenyl]-3-[3-hydroxy-3-(trifluoromethyl)cyclobutyl]-2-imino-6-methyl-hexahydro-pyrimidin-4-one (cis isomer)], with 6.42; and `CC(C)(C)c1cnc(Nc2cccc([C@]3(C)CC(=O)N(C4CCOCC4)C(=N)N3)c2Cl)cn1` [Example 107, (6S)-6-{3-[(5-tert-Butylpyrazin-2-yl)amino]-2-chlorophenyl}-2-imino-6-methyl-3-(tetrahydro-pyran-4-yl)hexahydropyrimidin-4-one], with 6.06.

Still in this assay, the particulars now being: Version 2 of the assay procedure (asterisk *); 72 h incubation in infected erythrocytes; 50,000 nM to 15 nM.
`CC1(C)CC(N2C(=N)N[C@](C)(c3cccc(Nc4ccc(OC(F)F)nc4)c3Cl)CC2=O)CCO1` (single isomer, unassigned) [Example 144, (6S)-6-(2-Chloro-3-{[6-(difluoromethoxy)pyridin-3-yl]-amino}phenyl)-3-[(4S*)-2,2-dimethyltetrahydropyran-4-yl]-2-imino-6-methylhexahydro-pyrimidin-4-one]: the pIC50 was 6.31.

Values taken from US11479546B2, “Antimalarial hexahydropyrimidine analogues” (UCB Biopharma SRL, priority 2018, dated 2022).
